The values below come from US9458101B2 (priority 2009, dated 2016).

As a reminder, the IC50 is the midpoint of a concentration-inhibition curve.

SMILES strings stand for the structures.

Data set [1] relates to CCRF-CEM (Human T-lymphoblastoids from ALL). Briefly: cells. The format is cell-based. As to conditions: 72 hours, precision +/−0.5 or better. The text has this:
(§1) A full factorial experimental design was used, for a total of 28 cases.
(§2) For each (cell line, compound) pair, the following conditions were used, with each condition being assigned to a lane on a microtiter plate: • a. Seven or eight concentration levels between 1×10^−10 M and 1×10^−3 M. • b. A control with cells and media only. • c. A control with cells, media and DMSO only. The DMSO was at a concentration approximately equal to that used in the highest drug concentration level.
(§3) Additionally, 6-8 replicates (wells) of each condition were done on the plate. Drug solutions were prepared by dissolving the solid compounds in DMSO and then diluting in water. An approximately equal number of cells were introduced into each well of the plate and cells were incubated for 72 hours. An MTS assay was performed and absorbance values were measured with a spectrophotometer. Finally, a log IC50 parameter was calculated by fitting a 4-parameter logistic model to the data using an implementation of the Levenberg-Marquardt algorithm.

Data set [2] has as its system A549 (Human lung adenocarcinoma). Briefly: cells. The data set is classed as cell-based. As to conditions: A549, 72 hours, precision +/−0.5 or better.
Excerpt: as §1, §2, §3

Data set [3] concerns NCI-H226 (Human lung squamous cell carcinoma). Briefly: cells. The note with it: NCI-H226, 72 hours, precision +/−0.5 or better. The format is cell-based.
Excerpt: as §1, §2, §3

Data set [4] has as its system MCF-7 (Human mammary gland adenocarcinoma). Briefly: cells. The format is cell-based. As to conditions: MCF7, MCF-7, 72 hours, precision +/−0.5 or better.
Excerpt: as §1, §2, §3

The next data set concerns CEM cells. The format is cell-based, Human.
Data set [5] is described as follows: Dissolution of drug for cytotoxicity testing. The format is physicochemical. Also noted: key: X*: Did not dissolve at normal pH. The note with it: footnote of Table 3. As for the experimental part: Drug solutions were prepared by dissolving it into 4.5% dimethylsulfoxide and diluting with distilled water to a final concentration of 1 mM. A series of dilutions were prepared and a wavelength scan of the diluted solution was used to determine the wavelength of maximum absorbance for each compound. Five standardized drug concentrations were scanned at this pre-determined wavelength to obtain an estimate of the compound's extinction coefficient.

With `COc1cc2c(c(OC)c1OC)-c1ccc(OC)c(=O)cc1[C@@H](NC(=O)CNC(=O)C(F)(F)F)CC2` [Compound 28a], the IC50 was 39.8 nM in data set [1], 631 nM in data set [2] and 316 nM in data set [3].

As for `COc1cc2c(c(OC)c1OC)-c1ccc(SC)c(=O)cc1[C@@H](NC(=O)CNC(=O)C(F)(F)F)CC2` [Compound 47a], the IC50 in data set [1] is 6.31 nM; in data set [2], 63.1 nM; in data set [4], 126000 nM; in data set [3] it was 50.1 nM.

Take `CCOc1cc2c(c(OC)c1OC)-c1ccc(SC)c(=O)cc1[C@@H](N(C(C)=O)C(=O)CNC(=O)C(F)(F)F)CC2` [Compound 49, N-[(7S)-3-ethoxy-1,2-dimethoxy-10-methylsulfanyl-9-oxo-5,6,7,9-tetrahydrobenzo[α]heptalen-7-yl]-N-[(trifluoroacetyl)glycyl]acetamide]: the “fold lower IC50 than IC50 of (39)” value in the data set on CEM cells is given as “about 8 fold”.

Consider `COc1c(O)cc2c(c1OC)-c1ccc(SC)c(=O)cc1[C@@H](N(C(C)=O)C(=O)CNC(=O)C(F)(F)F)CC2` [Compound 47, N-[(7S)-3-hydroxy-1,2-dimethoxy-10-methylsulfanyl-9-oxo-5,6,7,9-tetrahydrobenzo[α]heptalen-7-yl]-N-[(trifluoroacetyl)glycyl]acetamide], for which the “fold lower IC50 than IC50 of (39)” value in the data set on CEM cells is listed as “about 8 fold”.

For the compound `C=CCOc1cc2c(c(OC)c1OC)-c1ccc(SC)c(=O)cc1[C@@H](N(C(C)=O)C(=O)CNC(=O)C(F)(F)F)CC2` [Compound 48, N-[(7S)-1,2-dimethoxy-10-methylsulfanyl-9-oxo-3-(prop-2-enoxy)-5,6,7,9-tetrahydrobenzo[α]heptalen-7-yl]-N-[(trifluoroacetyl)glycyl]acetamide], the “fold lower IC50 than IC50 of (39)” value in the data set on CEM cells is “about 8 fold”.

`COc1cc2c(c(OCc3ccccc3Cl)c1OC)-c1ccc(OC)c(=O)cc1[C@@H](NC(C)=O)CC2` [Compound 14, N-[(7S)-2,3,10-trimethoxy-9-oxo-1-((phenyl(2-chloro))methoxy)-5,6,7,9-tetrahydrobenzo[α]heptalen-7-yl]acetamide]: the “dissolution at normal pH” value in data set [5] was “X*”.
